PubChem BioAssay AID1963875 (Molecular Pharmacology Branch, DTP, NCI, 2024)

Tested on: KRAS-mutant PDC complex spheroid viability
Test: Anticancer human tumor 186277-243-T-J2-PDC patient-derived colon adenocarcinoma cell line growth inhibition [KRAS2]
Conditions: for viability, T/C: stronger effect = lower value
Procedure, shortened: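 Combination screen of spheroid viability in tumor-cell co-cultures with endothelial (HUVEC) and mesenchymal stem cell stroma. Each agent was tested in half-log dilutions, topping at clinical Cmax or at 10 microM without a known Cmax.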

[1] = curve of first compound, second compound 0.1 µM
[2] = curve of first compound, second compound 0.316 µM
[3] = curve of first compound, second compound 1 µM
[4] = curve of first compound, second compound 3.16 µM
[5] = curve of first compound, second compound 10 µM
[6] = second compound 0.1 µM, first compound 0.000316 µM
[7] = second compound 0.1 µM, first compound 0.001 µM
[8] = second compound 0.1 µM, first compound 0.00316 µM
[9] = second compound 0.1 µM, first compound 0.01 µM
[10] = second compound 0.1 µM, first compound 0.0316 µM
[11] = second compound 0.316 µM, first compound 0.000316 µM
[12] = second compound 0.316 µM, first compound 0.001 µM
[13] = second compound 0.316 µM, first compound 0.00316 µM
[14] = second compound 0.316 µM, first compound 0.01 µM
[15] = second compound 0.316 µM, first compound 0.0316 µM
[16] = second compound 1 µM, first compound 0.000316 µM
[17] = second compound 1 µM, first compound 0.001 µM
[18] = second compound 1 µM, first compound 0.00316 µM
[19] = second compound 1 µM, first compound 0.01 µM
[20] = second compound 1 µM, first compound 0.0316 µM
[21] = second compound 3.16 µM, first compound 0.000316 µM
[22] = second compound 3.16 µM, first compound 0.001 µM
[23] = second compound 3.16 µM, first compound 0.00316 µM
[24] = second compound 3.16 µM, first compound 0.01 µM
[25] = second compound 3.16 µM, first compound 0.0316 µM
[26] = second compound 10 µM, first compound 0.000316 µM
[27] = second compound 10 µM, first compound 0.001 µM
[28] = second compound 10 µM, first compound 0.00316 µM
[29] = second compound 10 µM, first compound 0.01 µM
[30] = second compound 10 µM, first compound 0.0316 µM
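For viability, T/C in this document: viability read after seven days of compound exposure; 100% = DMSO vehicle-treated spheroids so lower means less viable.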

Row | SMILES | IC50 [1] [nM] | IC50 [2] [nM] | IC50 [3] [nM] | IC50 [4] [nM] | IC50 [5] [nM] | viability, T/C [6] [%] | viability, T/C [7] [%] | viability, T/C [8] [%] | viability, T/C [9] [%] | viability, T/C [10] [%] | viability, T/C [11] [%] | viability, T/C [12] [%] | viability, T/C [13] [%] | viability, T/C [14] [%] | viability, T/C [15] [%] | viability, T/C [16] [%] | viability, T/C [17] [%] | viability, T/C [18] [%] | viability, T/C [19] [%] | viability, T/C [20] [%] | other results
1 | CC(=O)Nc1cccc(-n2c(=O)n(C3CC3)c(=O)c3c(Nc4ccc(I)cc4F)n(C)c(=O)c(C)c32)c1 + COc1cc2nc(C)nc(NC(C)c3cc(N)cc(C(F)(F)F)c3)c2cc1OC1CCOC1 | 0.458 | 0.343 | 0.298 | 0.226 | < 0.1 | 68.2 | 11.4 | 4.55 | 1.94 | 1.13 | 53 | 10.2 | 3.15 | 2.07 | 1.01 | 46.3 | 8.75 | 4.43 | 1.55 | 1.02 | viability, T/C (second compound 0.1 µM, first compound 0.0001 µM): 116%; viability, T/C (second compound 0.316 µM, first compound 0.0001 µM): 108%; viability, T/C (second compound 1 µM, first compound 0.0001 µM): 118%; viability, T/C (second compound 3.16 µM, first compound 0.0001 µM): 108%; viability, T/C [21]: 26%; viability, T/C [22]: 6.24%; viability, T/C [23]: 2.83%; viability, T/C [24]: 1.04%; viability, T/C [25]: 0.82%; viability, T/C (second compound 10 µM, first compound 0.0001 µM): 13.9%; viability, T/C [26]: 3.04%; viability, T/C [27]: 1.39%; viability, T/C [28]: 0.49%; viability, T/C [29]: 0.21%; viability, T/C [30]: 0.23%
2 | COc1cc(Nc2ncc3c(n2)-c2ccc(Cl)cc2C(c2c(F)cccc2OC)=NC3)ccc1C(=O)O | – | – | – | – | – | – | – | – | – | – | – | – | – | – | – | – | – | – | – | – | viability, T/C (compound 0.0316 µM): 37.6% [middle of 5 runs]; viability, T/C (compound 0.1 µM): 34.1% [middle of 5 runs]; viability, T/C (compound 0.316 µM): 33.4% [middle of 5 runs]; viability, T/C (compound 1 µM): 37% [middle of 5 runs]; viability, T/C (compound 3.16 µM): 46.8% [middle of 5 runs]; viability, T/C (compound 10 µM): 50.4% [middle of 5 runs]; IC50 (curve of compound): < 31.6 nM
3 | CN(C)C/C=C/C(=O)Nc1cc2c(Nc3ccc(F)c(Cl)c3)ncnc2cc1O[C@H]1CCOC1 + C=CC(=O)N1CCN(c2nc(=O)n(-c3c(C)ccnc3C(C)C)c3nc(-c4c(O)cccc4F)c(F)cc23)C(C)C1 | > 100 | > 100 | > 100 | > 100 | 49.8 | 105 | 93.7 | 106 | 102 | 122 | 95.8 | 97.7 | 99.5 | 98.4 | 107 | 91.2 | 106 | 91.5 | 101 | 113 | viability, T/C (second compound 0.1 µM, first compound 0.1 µM): 109%; viability, T/C (second compound 0.316 µM, first compound 0.1 µM): 112%; viability, T/C (second compound 1 µM, first compound 0.1 µM): 105%; viability, T/C [21]: 93.1%; viability, T/C [22]: 103%; viability, T/C [23]: 100%; viability, T/C [24]: 98.1%; viability, T/C [25]: 97.7%; viability, T/C (second compound 3.16 µM, first compound 0.1 µM): 74.4%; viability, T/C [26]: 79.9%; viability, T/C [27]: 68.8%; viability, T/C [28]: 77.3%; viability, T/C [29]: 66.3%; viability, T/C [30]: 55.2%; viability, T/C (second compound 10 µM, first compound 0.1 µM): 40.6%
